According to ChEMBL document CHEMBL1144176, “Synthesis and biological evaluation of indolyl bisphosphonates as anti-bone resorptive and anti-leishmanial agents” (Bioorg Med Chem, 2008):
Converted amounts (≈) assume the structure as drawn. The source made the active and inactive calls. No cut-off for these calls is given here.

What was measured:
[1] = Cytotoxicity against Sprague-Dawley rat calvarial osteoblast cells at 10 pM to 1 uM after 48 hrs by MTT assay; type: cell-based
[2] = tested on: Leishmania donovani; experiment: Antileishmanial activity against Leishmania donovani MHOM/IN/80/Dd8 promastigotes infected in mouse J774A1 cells at 10 ug/mL after 96 hrs by MTT assay relative to control; type: functional; conditions: for inhibition at 10 µg/mL: MHOM/IN/80/Dd8, J774.A1, 96 h; for Activity: J774.A1
[3] = tested on: Leishmania donovani; experiment: Antileishmanial activity against Leishmania donovani MHOM/IN/80/Dd8 amastigotes infected in mouse J774A1 cells at 10 ug/mL after 72 hrs by MTT assay relative to control; type: functional; conditions: for Activity: J774.A1; for inhibition at 10 µg/mL: MHOM/IN/80/Dd8, J774.A1, 72 h
[4] = tested on: Bone marrow cell; experiment: Antibone resorptive activity in mouse bone marrow cells assessed as inhibition of osteoclastogenesis at 100 nM after 7 days by TRAP assay in presence of MCSF and RANKL; type: functional, cell-based
[5] = tested on: Leishmania donovani; experiment: Antileishmanial activity against Leishmania donovani MHOM/IN/80/Dd8 promastigotes infected in mouse J774A1 cells at 6.25 ug/mL after 96 hrs by MTT assay relative to control; type: functional; conditions: MHOM/IN/80/Dd8, J774.A1, 96 h
[6] = tested on: Leishmania donovani; experiment: Antileishmanial activity against Leishmania donovani MHOM/IN/80/Dd8 amastigotes infected in mouse J774A1 cells at 5 ug/mL after 72 hrs by MTT assay relative to control; type: functional; conditions: MHOM/IN/80/Dd8, J774.A1, 72 h
[7] = tested on: Leishmania donovani; experiment: Antileishmanial activity against Leishmania donovani MHOM/IN/80/Dd8 amastigotes infected in mouse J774A1 cells at 2 ug/mL after 72 hrs by MTT assay relative to control; type: functional; conditions: MHOM/IN/80/Dd8, J774.A1, 72 h
[8] = tested on: Leishmania donovani; experiment: Antileishmanial activity against Leishmania donovani MHOM/IN/80/Dd8 amastigotes infected in mouse J774A1 cells at 1 ug/mL after 72 hrs by MTT assay relative to control; type: functional; conditions: MHOM/IN/80/Dd8, J774.A1, 72 h
[9] = tested on: Leishmania donovani; experiment: Antileishmanial activity against Leishmania donovani MHOM/IN/80/Dd8 amastigotes infected in mouse J774A1 cells after 72 hrs by MTT assay; type: functional, organism-based; conditions: MHOM/IN/80/Dd8, J774.A1, 72 h
[10] = Cytotoxicity against mouse J774A1 cells after 72 hrs by MTT assay; type: cell-based, J774.A1
[11] = tested on: Bone marrow cell; experiment: Antibone resorptive activity in mouse bone marrow cells assessed as inhibition of osteoclastogenesis at 100 pM after 7 days by TRAP assay in presence of MCSF and RANKL; type: functional, cell-based
[12] = tested on: Osteoclast; experiment: Induction of apoptosis in mouse osteoclast cells assessed as nucleosomal DNA fragmentation at 100 nM after 48 hrs by Hoechst 33258 staining; type: functional, cell-based
[13] = tested on: Mus musculus; experiment: Antibone resorptive activity in BALB/c ovariectomized mouse bone marrow cells assessed as inhibition of osteoclastogenesis at 10 mg/kg by TRAP assay relative to control in presence of MCSF and RANKL; type: functional; set-up: scale not given: the % may be the effect or the level left
[14] = tested on: Mus musculus; experiment: Induction of osteoclastogenesis in BALB/c ovariectomized mouse bone marrow cells at 10 mg/kg by TRAP assay relative to sham group in presence of MCSF and RANKL; type: functional
[15] = tested on: Leishmania donovani; experiment: Antileishmanial activity against Leishmania donovani MHOM/IN/80/Dd8 promastigotes infected in mouse J774A1 cells at 2000 ug/mL after 96 hrs by MTT assay relative to control; type: functional, organism-based; conditions: J774.A1
[16] = tested on: Leishmania donovani; experiment: Antileishmanial activity against Leishmania donovani MHOM/IN/80/Dd8 promastigotes infected in mouse J774A1 cells at 1000 ug/mL after 96 hrs by MTT assay relative to control; type: functional, organism-based; conditions: J774.A1
[17] = tested on: Leishmania donovani; experiment: Antileishmanial activity against Leishmania donovani MHOM/IN/80/Dd8 promastigotes infected in mouse J774A1 cells at 500 ug/mL after 96 hrs by MTT assay relative to control; type: functional, organism-based; conditions: J774.A1
[18] = tested on: Leishmania donovani; experiment: Antileishmanial activity against Leishmania donovani MHOM/IN/80/Dd8 amastigotes infected in mouse J774A1 cells at 200 ug/mL after 72 hrs by MTT assay relative to control; type: functional, organism-based; conditions: J774.A1
[19] = tested on: Leishmania donovani; experiment: Antileishmanial activity against Leishmania donovani MHOM/IN/80/Dd8 amastigotes infected in mouse J774A1 cells at 100 ug/mL after 72 hrs by MTT assay relative to control; type: functional, organism-based; conditions: J774.A1
[20] = tested on: Leishmania donovani; experiment: Antileishmanial activity against Leishmania donovani MHOM/IN/80/Dd8 amastigotes infected in mouse J774A1 cells at 50 ug/mL after 72 hrs by MTT assay relative to control; type: functional, organism-based; conditions: J774.A1
[21] = tested on: Leishmania donovani; experiment: Antileishmanial activity against Leishmania donovani MHOM/IN/80/Dd8 amastigotes infected in mouse J774A1 cells at 25 ug/mL after 72 hrs by MTT assay relative to control; type: functional, organism-based; conditions: J774.A1
[22] = tested on: Osteoclast; experiment: Induction of apoptosis in mouse osteoclast cells assessed as nucleosomal DNA fragmentation at 10 pM after 48 hrs by Hoechst 33258 staining; type: functional, cell-based
[23] = tested on: Bone marrow cell; experiment: Antibone resorptive activity in mouse bone marrow cells assessed as inhibition of osteoclastogenesis at 10 pM after 7 days by TRAP assay in presence of MCSF and RANKL; type: functional, cell-based

Molecule: O=P([O-])([O-])C(O)(CCn1c2c(c3ccccc31)CCSc1ccccc1-2)P(=O)([O-])[O-].[Na+].[Na+].[Na+].[Na+]
- Activity [1]: Active
- inhibition at 10 µg/mL [2]: 23.5%
- Activity [3]: inactive

Molecule: NCCCC(O)(P(=O)(O)O)P(=O)(O)O
- Activity [4]: Active

Molecule: O=P([O-])([O-])C(O)(Cn1c2c(c3ccccc31)CCSc1ccccc1-2)P(=O)([O-])[O-].[Na+].[Na+].[Na+].[Na+]
- Activity [1]: Active
- Activity [2]: inactive
- inhibition at 10 µg/mL [3]: 33.5%

Molecule: CCOP(=O)(OCC)C(O)(CCCCCn1c2c(c3ccccc31)CCCc1ccccc1-2)P(=O)(OCC)OCC
- Activity [1]: Not Active
- inhibition at 10 µg/mL [2]: 85.7%
- inhibition at 6.25 µg/mL [5]: 26.1%
- Activity [3]: Toxic

Molecule: CCOP(=O)(OCC)C(O)(CCCCn1c2c(c3ccccc31)CCCc1ccccc1-2)P(=O)(OCC)OCC
- Activity [1]: Not Active
- Activity [4]: Active
- inhibition at 10 µg/mL [2]: 99.8%
- inhibition at 6.25 µg/mL [5]: 86.4%
- inhibition at 5 µg/mL [6]: 78.3%
- inhibition at 2 µg/mL [7]: 80.6%
- inhibition at 1 µg/mL [8]: 3%
- IC50 [9]: 24 µg/mL (≈ 40.6 µM)
- CC50 at 72 h [10]: 5.81 µg/mL (≈ 9.82 µM)

Molecule: CCOP(=O)(OCC)C(O)(CCCCCn1c2c(c3ccccc31)CCSc1ccccc1-2)P(=O)(OCC)OCC
- Activity [1]: Not Active
- Activity [4]: inactive
- Activity [11]: Active
- Activity [12]: Active
- Activity [13]: 9%
- Activity [14]: 40%
- inhibition at 10 µg/mL [2]: 100%
- inhibition at 6.25 µg/mL [5]: 99.6%
- inhibition at 10 µg/mL [3]: 78.2%
- inhibition at 5 µg/mL [6]: 58.8%
- inhibition at 2 µg/mL [7]: 16.8%
- inhibition at 1 µg/mL [8]: 4.2%
- IC50 [9]: 1.69 µg/mL (≈ 2.71 µM)
- CC50 at 72 h [10]: 3.66 µg/mL (≈ 5.87 µM)

Molecule: Sodium Stibogluconate
- inhibition [15]: 72.8%
- inhibition [16]: 55.5%
- inhibition [17]: 29.1%
- inhibition [18]: 99.8%
- inhibition [19]: 78.8%
- inhibition [20]: 48.4%
- inhibition [21]: 11.4%

Molecule: O=P([O-])([O-])C(O)(CCCCn1c2c(c3ccccc31)CCSc1ccccc1-2)P(=O)([O-])[O-].[Na+].[Na+].[Na+].[Na+]
- Activity [1]: Not Active
- Activity [4]: Active
- Activity [2]: inactive
- inhibition at 10 µg/mL [3]: 55.3%

Molecule: CCOP(=O)(OCC)C(O)(CCCCn1c2c(c3ccccc31)CCOc1ccccc1-2)P(=O)(OCC)OCC
- Activity [1]: Active
- inhibition at 10 µg/mL [2]: 39.4%
- Activity [3]: inactive

Molecule: O=P([O-])([O-])C(O)(CCCn1c2c(c3ccccc31)CCSc1ccccc1-2)P(=O)([O-])[O-].[Na+].[Na+].[Na+].[Na+]
- Activity [1]: Active
- Activity [2]: inactive
- inhibition at 10 µg/mL [3]: 6.3%

Molecule: CCOP(=O)(OCC)C(O)(CCCCCCn1c2c(c3ccccc31)CCSc1ccccc1-2)P(=O)(OCC)OCC
- Activity [1]: Not Active
- Activity [4]: Active
- inhibition at 10 µg/mL [2]: 100%
- inhibition at 6.25 µg/mL [5]: 90.1%
- inhibition at 10 µg/mL [3]: 85%
- inhibition at 5 µg/mL [6]: 67.2%
- inhibition at 2 µg/mL [7]: 40%
- inhibition at 1 µg/mL [8]: 25.5%
- IC50 [9]: 2.56 µg/mL (≈ 4.01 µM)
- CC50 at 72 h [10]: 4.5 µg/mL (≈ 7.06 µM)

Molecule: CCOP(=O)(OCC)C(O)(CCCCn1c2c(c3ccccc31)CCSc1ccccc1-2)P(=O)(OCC)OCC
- Activity [1]: Not Active
- Activity [4]: inactive
- Activity [11]: Active
- Activity [22]: Active
- Activity [23]: Active
- Activity [13]: 8.4%
- Activity [14]: 40%
- inhibition at 10 µg/mL [2]: 27.8%
- inhibition at 10 µg/mL [3]: 9.45%
